Several values for one entry are separate records, joined by “and”; a condition that tells them apart may be missing. Identical values can stand only once.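 Protocol summary: plate cells (96-well), add compound at 5 concentrations, incubate 48 h, interpolate endpoints linearly. GI50: concentration for 50% inhibition of growth. TGI marks complete inhibition of growth.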 Where only a bound is given, the exact number is not on record here.

Among the test systems are HCT-116 colon; NCI-H23 lung; ACHN renal; SK-MEL-5 melanoma; SN12C renal; KM20L2 colon; SK-MEL-28 melanoma; DMS 273 small cell lung; MDA-MB-435; HT29 colon.
Holding throughout (assay): NCI anticancer screen, dose series, 48 h

As for `CCC[CH2][Sn]([CH2]CCC)([O]C(=O)c1cccc(F)c1F)[O][Sn]([CH2]CCC)([CH2]CCC)[O]C(=O)c1cccc(F)c1F`, the GI50 in the test on HCT-116 colon was 0.257 µM; in the test with NCI-H23 lung, 0.0557 µM; in the test with ACHN renal it was 0.214 µM; with SK-MEL-5 melanoma, 0.52 µM; in the test on SN12C renal, 0.293 µM; in the test with KM20L2 colon, 0.727 µM. For the same compound, the GI50 is 0.154 µM with SK-MEL-28 melanoma, 0.301 µM in the test with DMS 273 small cell lung, 0.13 µM in the test with MDA-MB-435 and 0.812 µM in the test on HT29 colon. The TGI in the test with HCT-116 colon is 0.848 µM; with NCI-H23 lung, 0.272 µM; with ACHN renal it was 0.512 µM; with SK-MEL-5 melanoma it was 1.69 µM; in the test on SN12C renal, 1.15 µM; in the test on KM20L2 colon, 2.1 µM. The TGI amounted to 0.369 µM in the test with SK-MEL-28 melanoma, 1.51 µM with DMS 273 small cell lung, 1.09 µM in the test on MDA-MB-435 and 2.07 µM with HT29 colon.
With `NC(=S)N/N=C1\C(=O)N(c2cccc([N+](=O)[O-])c2)C(=O)C1C(=O)Nc1cccc([N+](=O)[O-])c1` (configuration not stated), the TGI with HCT-116 colon, in the test on NCI-H23 lung, in the test on ACHN renal, in the test with SK-MEL-5 melanoma, with SN12C renal and in the test with KM20L2 colon was more than 100 µM throughout. Further, the TGI with SK-MEL-28 melanoma, with DMS 273 small cell lung and in the test with HT29 colon was more than 100 µM in each case.
For `Nc1nc(F)nc2c1ncn2C1OC(COP(=O)(O)O)C(O)C1O` (configuration not stated), the TGI in the test on HCT-116 colon is 325 µM; in the test with NCI-H23 lung, 243 µM; in the test on ACHN renal, 247 µM; in the test with SK-MEL-5 melanoma, 406 µM; with SN12C renal it was 145 µM; in the test with KM20L2 colon, more than 1250 µM. For the same compound, the TGI in the test on SK-MEL-28 melanoma is 755 µM; in the test with DMS 273 small cell lung, 821 µM; in the test on MDA-MB-435 it was 218 µM; in the test with HT29 colon it was more than 1250 µM.
For the compound `CC(=O)Oc1cc2c(=O)oc3c(OC(C)=O)c(OC(C)=O)c(OC(C)=O)c4c(=O)oc(c1OC(C)=O)c2c34`, the TGI is 52.6 µM in the test with HCT-116 colon; more than 100 µM with NCI-H23 lung; more than 100 µM with ACHN renal; more than 100 µM in the test with SK-MEL-5 melanoma; 61.1 µM in the test with SN12C renal; more than 100 µM with KM20L2 colon. For the same compound, the TGI with SK-MEL-28 melanoma, in the test on DMS 273 small cell lung and with HT29 colon was more than 100 µM each time.
For `CC1=Cc2cc3[n-]c(cc4nc(cc5[n-]c(cc1n2)c(C)c5CCC(=O)O)C(CCC(=O)O)=C4C)cc3C.[Cu+2]`, the GI50 in the test on HCT-116 colon is > 1 µM and 33.4 µM; in the test on NCI-H23 lung, > 1 µM and 24.9 µM; in the test with ACHN renal, > 1 µM and 38.8 µM; in the test on SK-MEL-5 melanoma it was > 1 µM and 14.5 µM; in the test on SN12C renal, > 1 µM and 57.7 µM; in the test with KM20L2 colon it was more than 100 µM. Also, the GI50 was > 1 µM and 4.4 µM with SK-MEL-28 melanoma; more than 39.8 µM with DMS 273 small cell lung; 55.1 µM with MDA-MB-435; more than 100 µM in the test with HT29 colon. For the same compound, the TGI in the test with HCT-116 colon is more than 100 µM; in the test with NCI-H23 lung it was > 1 µM and 52.8 µM; in the test with ACHN renal, more than 100 µM; in the test on SK-MEL-5 melanoma it was > 1 µM and 31.5 µM; in the test with SN12C renal, more than 100 µM; in the test with KM20L2 colon, more than 100 µM. Further, the TGI with SK-MEL-28 melanoma was > 1 µM and 12.9 µM; with DMS 273 small cell lung, more than 55.9 µM; in the test with MDA-MB-435, more than 100 µM; with HT29 colon, more than 100 µM.
For `O=C1C(Br)=C(c2ccccc2)C(c2ccccc2)=C1c1ccccc1`, the TGI in the test with HCT-116 colon is 3.6 µM; in the test with NCI-H23 lung, 10.5 µM; in the test with ACHN renal it was 6.51 µM; in the test on SK-MEL-5 melanoma, 9.35 µM; with SN12C renal, 3.85 µM; in the test on KM20L2 colon it was 13.1 µM. The TGI in the test on SK-MEL-28 melanoma worked out at 6.75 µM; in the test with DMS 273 small cell lung, 3.68 µM; with MDA-MB-435, 12.5 µM; in the test with HT29 colon it was 5.15 µM.
With `COc1ccc(/C(Cl)=C(\C=O)c2cc(OC)c(OC)c(OC)c2)cc1OC`, the TGI with HCT-116 colon, in the test with NCI-H23 lung, with ACHN renal, in the test on SK-MEL-5 melanoma, in the test on SN12C renal and in the test on KM20L2 colon was more than 100 µM throughout. Moreover, the TGI is more than 100 µM in the test with SK-MEL-28 melanoma, more than 100 µM in the test on DMS 273 small cell lung, more than 100 µM in the test on MDA-MB-435 and 87.7 µM in the test with HT29 colon.
For `O[C@H]1[C@H]2[C@H](O)CCCN2C[C@H]1O`, the TGI in the test on HCT-116 colon, in the test with NCI-H23 lung, in the test on ACHN renal, in the test on SK-MEL-5 melanoma, in the test on SN12C renal and in the test with KM20L2 colon was more than 100 µM in each case. The TGI in the test with SK-MEL-28 melanoma, in the test on DMS 273 small cell lung and in the test on HT29 colon was more than 100 µM in each case.

Values taken from PubChem BioAssay (NCI).
